# Patent publication US10760110B2, “Antibiotic testing and screening system” (priority 2017, dated 2020)
# Read-outs that look alike come from different tables or passages of the source.
# What was measured:
# Conditions in all cases: Klebsiella pneumoniae
# [1] = test system: K. pneumoniae NVT1001 and its ΔompK35/36 and/or ΔramR mutants; assay: Etest MIC, OmpK35/36 loss and AcrAB-TolC overexpression (ΔramR) strains (Table 6); assay type: cell-based, Klebsiella pneumoniae
# Outline: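 Etest MICs against K. pneumoniae NVT1001 and its ΔompK35/36 and/or ΔramR mutants, rounded up to the next two-fold value. For NVT1001 carrying pACYC177-blaOXA-48, ceftazidime and cefotaxime MICs by CLSI broth microdilution, interpreted with CLSI 2017 breakpoints.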
# [2] = test system: K. pneumoniae NVT1001 ΔramRΔompK35/36 mutant and its revertants; assay: Etest MIC, ΔramRΔompK35/36 mutant and its revertants (Table 7); assay type: cell-based
# [3] = test system: K. pneumoniae NVT1001 strains with carbapenemase plasmids; assay: Etest MIC of β-lactams, OmpK35/36 loss, ΔramR and/or carbapenemase (Table 9); assay type: cell-based, Klebsiella pneumoniae
# Outline: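 Etest MICs, with values between standard dilutions rounded up to the next two-fold step, were measured in K. pneumoniae NVT1001 carrying PCR-cloned resistance genes on pACYC177 or pACYC184 plasmids. Interpretation used CLSI 2017 breakpoints, CLSI 2015 for cephalothin and EUCAST 2017 for moxifloxacin. For the blaOXA-48 strain, ceftazidime and cefotaxime were additionally tested by CLSI broth microdilution.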
smiles,measurement,setting,value
CO/N=C(\C(=O)N[C@@H]1C(=O)N2C(C(=O)O)=C(COC(N)=O)CS[C@H]12)c1ccco1 [Cefuroxime],MIC,"[1]; WT, NVT1001, read-out: MIC",4 µg/mL
same,MIC,"[1]; Δ35, ΔompK35 mutant",8 µg/mL
same,MIC,"[1]; Δ35/36, ΔompK35/36 mutant",32 µg/mL
same,MIC,"[1]; Δ36, ΔompK36 mutant",16 µg/mL
same,MIC,[1]; ΔramR mutant,32 µg/mL
same,MIC,"[1]; ΔramRΔ35, ΔramRΔompK35 mutant",64 µg/mL
same,MIC,"[1]; ΔramRΔ35/36, ΔramRΔompK35/36 mutant",128 µg/mL
same,MIC,"[1]; ΔramRΔ36, ΔramRΔompK36 mutant",> 256 µg/mL
same,MIC,[2]; ΔramRΔompK35/36::ompK35/36 revertant,32 µg/mL
same,MIC,[2]; ΔramRΔompK35/36::ompK35 revertant,> 256 µg/mL
same,MIC,[2]; ΔramRΔompK35/36::ompK36 revertant,32 µg/mL
same,MIC,[2]; ΔramRΔompK35/36::ramR revertant,32 µg/mL
same,MIC,[2]; ΔramRΔompK35/36::ramR::ompK35/36 revertant,4 µg/mL
same,MIC,[2]; ΔramRΔompK35/36::ramR::ompK35 revertant,16 µg/mL
same,MIC,[2]; ΔramRΔompK35/36::ramR::ompK36 revertant,8 µg/mL
same,MIC,[2]; ΔramRΔompK35/36 mutant,128 µg/mL
same,MIC,"[3]; IMP-8 on pACYC177, WT (NVT1001), read-out: MIC",> 256 µg/mL
same,MIC,"[3]; IMP-8 on pACYC177, Δ35 (ΔompK35 mutant)",> 256 µg/mL
same,MIC,"[3]; IMP-8 on pACYC177, Δ35/36 (ΔompK35/36 mutant)",> 256 µg/mL
same,MIC,"[3]; IMP-8 on pACYC177, Δ36 (ΔompK36 mutant)",> 256 µg/mL
same,MIC,"[3]; IMP-8 on pACYC177, ΔramR mutant",> 256 µg/mL
same,MIC,"[3]; IMP-8 on pACYC177, ΔramRΔ35 (ΔramRΔompK35 mutant)",> 256 µg/mL
same,MIC,"[3]; IMP-8 on pACYC177, ΔramRΔ35/36 (ΔramRΔompK35/36 mutant)",> 256 µg/mL
same,MIC,"[3]; IMP-8 on pACYC177, ΔramRΔ36 (ΔramRΔompK36 mutant)",> 256 µg/mL
same,MIC,"[3]; KPC-2 on pACYC177, WT (NVT1001), read-out: MIC",> 256 µg/mL
same,MIC,"[3]; KPC-2 on pACYC177, Δ35 (ΔompK35 mutant)",> 256 µg/mL
same,MIC,"[3]; KPC-2 on pACYC177, Δ35/36 (ΔompK35/36 mutant)",> 256 µg/mL
same,MIC,"[3]; KPC-2 on pACYC177, Δ36 (ΔompK36 mutant)",> 256 µg/mL
same,MIC,"[3]; KPC-2 on pACYC177, ΔramR mutant",> 256 µg/mL
same,MIC,"[3]; KPC-2 on pACYC177, ΔramRΔ35 (ΔramRΔompK35 mutant)",> 256 µg/mL
same,MIC,"[3]; KPC-2 on pACYC177, ΔramRΔ35/36 (ΔramRΔompK35/36 mutant)",> 256 µg/mL
same,MIC,"[3]; KPC-2 on pACYC177, ΔramRΔ36 (ΔramRΔompK36 mutant)",> 256 µg/mL
same,MIC,"[3]; KPC-3 on pACYC177, WT (NVT1001), read-out: MIC",> 256 µg/mL
same,MIC,"[3]; KPC-3 on pACYC177, Δ35 (ΔompK35 mutant)",> 256 µg/mL
same,MIC,"[3]; KPC-3 on pACYC177, Δ35/36 (ΔompK35/36 mutant)",> 256 µg/mL
same,MIC,"[3]; KPC-3 on pACYC177, Δ36 (ΔompK36 mutant)",> 256 µg/mL
same,MIC,"[3]; KPC-3 on pACYC177, ΔramR mutant",> 256 µg/mL
same,MIC,"[3]; KPC-3 on pACYC177, ΔramRΔ35 (ΔramRΔompK35 mutant)",> 256 µg/mL
same,MIC,"[3]; KPC-3 on pACYC177, ΔramRΔ35/36 (ΔramRΔompK35/36 mutant)",> 256 µg/mL
same,MIC,"[3]; KPC-3 on pACYC177, ΔramRΔ36 (ΔramRΔompK36 mutant)",> 256 µg/mL
same,MIC,"[3]; NDM-1 on pACYC177, WT (NVT1001), read-out: MIC",> 256 µg/mL
same,MIC,"[3]; NDM-1 on pACYC177, Δ35 (ΔompK35 mutant)",> 256 µg/mL
same,MIC,"[3]; NDM-1 on pACYC177, Δ35/36 (ΔompK35/36 mutant)",> 256 µg/mL
same,MIC,"[3]; NDM-1 on pACYC177, Δ36 (ΔompK36 mutant)",> 256 µg/mL
same,MIC,"[3]; NDM-1 on pACYC177, ΔramR mutant",> 256 µg/mL
same,MIC,"[3]; NDM-1 on pACYC177, ΔramRΔ35 (ΔramRΔompK35 mutant)",> 256 µg/mL
same,MIC,"[3]; NDM-1 on pACYC177, ΔramRΔ35/36 (ΔramRΔompK35/36 mutant)",> 256 µg/mL
same,MIC,"[3]; NDM-1 on pACYC177, ΔramRΔ36 (ΔramRΔompK36 mutant)",> 256 µg/mL
same,MIC,"[3]; OXA-48 on pACYC177, WT (NVT1001), read-out: MIC",8 µg/mL
same,MIC,"[3]; OXA-48 on pACYC177, Δ35 (ΔompK35 mutant)",16 µg/mL
same,MIC,"[3]; OXA-48 on pACYC177, Δ35/36 (ΔompK35/36 mutant)",128 µg/mL
same,MIC,"[3]; OXA-48 on pACYC177, Δ36 (ΔompK36 mutant)",32 µg/mL
same,MIC,"[3]; OXA-48 on pACYC177, ΔramR mutant",64 µg/mL
same,MIC,"[3]; OXA-48 on pACYC177, ΔramRΔ35 (ΔramRΔompK35 mutant)",64 µg/mL
same,MIC,"[3]; OXA-48 on pACYC177, ΔramRΔ35/36 (ΔramRΔompK35/36 mutant)",> 256 µg/mL
same,MIC,"[3]; OXA-48 on pACYC177, ΔramRΔ36 (ΔramRΔompK36 mutant)",> 256 µg/mL
same,MIC,"[3]; VIM-1 on pACYC177, WT (NVT1001), read-out: MIC",> 256 µg/mL
same,MIC,"[3]; VIM-1 on pACYC177, Δ35 (ΔompK35 mutant)",> 256 µg/mL
same,MIC,"[3]; VIM-1 on pACYC177, Δ35/36 (ΔompK35/36 mutant)",> 256 µg/mL
same,MIC,"[3]; VIM-1 on pACYC177, Δ36 (ΔompK36 mutant)",> 256 µg/mL
same,MIC,"[3]; VIM-1 on pACYC177, ΔramR mutant",> 256 µg/mL
same,MIC,"[3]; VIM-1 on pACYC177, ΔramRΔ35 (ΔramRΔompK35 mutant)",> 256 µg/mL
same,MIC,"[3]; VIM-1 on pACYC177, ΔramRΔ35/36 (ΔramRΔompK35/36 mutant)",> 256 µg/mL
same,MIC,"[3]; VIM-1 on pACYC177, ΔramRΔ36 (ΔramRΔompK36 mutant)",> 256 µg/mL
same,MIC,"[3]; no supplemental plasmid, WT (NVT1001), read-out: MIC",4 µg/mL
same,MIC,"[3]; no supplemental plasmid, Δ35 (ΔompK35 mutant)",8 µg/mL
same,MIC,"[3]; no supplemental plasmid, Δ35/36 (ΔompK35/36 mutant)",32 µg/mL
same,MIC,"[3]; no supplemental plasmid, Δ36 (ΔompK36 mutant)",16 µg/mL
same,MIC,"[3]; no supplemental plasmid, ΔramR mutant",32 µg/mL
same,MIC,"[3]; no supplemental plasmid, ΔramRΔ35 (ΔramRΔompK35 mutant)",64 µg/mL
same,MIC,"[3]; no supplemental plasmid, ΔramRΔ35/36 (ΔramRΔompK35/36 mutant)",128 µg/mL
same,MIC,"[3]; no supplemental plasmid, ΔramRΔ36 (ΔramRΔompK36 mutant)",> 256 µg/mL
